Measured values published in patent US20240294531A1, “COVALENT HETEROCYCLES AND USES THEREOF” (Kumquat Biosciences Inc., priority 2022, published 2024).
pIC50: −log10 of the molar value.

How the values were obtained:
[1] = target: BTK C481S protein (Homo sapiens (Human), UniProt Q06187, C481S); experiment: BTK C481S HTRF displacement assay; assay type: binding; conditions: 1-hour incubation
Summary of the method: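 Tracer displacement read by HTRF after 1 hour at room temperature: GST-BTK C481S 2-659, 50 nM tracer 239 (Kd 54 nM), anti-GST antibody, compound in six four-fold doses from 5 μM. Percent inhibition versus DMSO fitted (bottom 0, top 100) for IC50, converted to KI via Cheng-Prusoff.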

[2] = target: BTK wildtype protein (Homo sapiens (Human), UniProt Q06187); experiment: BTK wildtype HTRF displacement assay; assay type: binding; conditions: 1-hour incubation; read-out: BTK (wt) IC50
Summary of the method: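 Tracer-displacement HTRF format: compound and tracer 239 compete at the BTK active site, detected via anti-GST-Tb on GST-tagged full-length enzyme. One-hour room-temperature incubation; compounds dosed at six four-fold steps down from 5 μM. Percent inhibition versus DMSO gives IC50 by constrained four-parameter logistic fit.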

Sequence of BTK wildtype protein (Q06187 2-659): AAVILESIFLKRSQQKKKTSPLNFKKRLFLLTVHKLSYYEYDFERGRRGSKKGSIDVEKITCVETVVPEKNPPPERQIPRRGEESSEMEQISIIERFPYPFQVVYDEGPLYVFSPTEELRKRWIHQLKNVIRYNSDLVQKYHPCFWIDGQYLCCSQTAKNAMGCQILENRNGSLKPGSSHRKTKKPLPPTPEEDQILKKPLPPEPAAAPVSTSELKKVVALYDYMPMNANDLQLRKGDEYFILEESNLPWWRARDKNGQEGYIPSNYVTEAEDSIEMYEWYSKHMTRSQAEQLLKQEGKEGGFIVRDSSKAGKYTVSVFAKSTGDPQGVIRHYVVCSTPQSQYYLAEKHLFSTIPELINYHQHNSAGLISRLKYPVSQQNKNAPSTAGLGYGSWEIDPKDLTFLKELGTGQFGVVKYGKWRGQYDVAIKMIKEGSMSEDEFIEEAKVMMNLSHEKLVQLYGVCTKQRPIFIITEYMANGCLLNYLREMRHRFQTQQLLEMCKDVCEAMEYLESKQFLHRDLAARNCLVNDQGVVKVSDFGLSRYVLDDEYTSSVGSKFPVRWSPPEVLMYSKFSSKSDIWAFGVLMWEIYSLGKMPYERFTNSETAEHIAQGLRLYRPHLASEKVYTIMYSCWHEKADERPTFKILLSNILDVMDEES
Sequence of BTK C481S protein (Q06187 2-659 C481S): as the sequence (Q06187 2-659) above, with C480S counted along it

SMILES | pIC50 [1] | pIC50 [2]
NC(=O)c1cn(C[C@@H]2CCCCN2C(=O)n2cncn2)nc1-c1ccc(Oc2ccccc2)cc1 [Compound 175, (S)-1-((1-(1H-1,2,4-triazole-1-carbonyl)piperidin-2-yl)methyl)-3-(4-phenoxyphenyl)-1H-pyrazole-4-carboxamide] | < 6.00 | < 6.00
NC(=O)c1c(-c2ccc(Oc3ccccc3)cc2)nn2c1NCCC2CN(C(=O)n1cncn1)C1CC1 (centres unmarked) [Compound 240, 7-((N-cyclopropyl-1H-1,2,4-triazole-1-carboxamido)methyl)-2-(4-phenoxyphenyl)-4,5,6,7-tetrahydro-pyrazolo[1,5-a]pyrimidine-3-carboxamide] | < 6.00 | < 6.00
CC(CN(C)C(=O)n1cncn1)C1CCNc2c(C(N)=O)c(-c3ccc(Oc4ccccc4)cc3)nn21 (centres unmarked) [Compound 308, 7-(1-(N-methyl-1H-1,2,4-triazole-1-carboxamido)propan-2-yl)-2-(4-phenoxyphenyl)-4,5,6,7-tetrahydropyrazolo[1,5-a] pyrimidine-3-carboxamide] | ≥ 6.00 | ≥ 6.00
NC(=O)c1c(-c2ccc(Oc3ccccc3)cc2)nn2c1NCCC2C1CN(C(=O)n2cncn2)C1 (centres unmarked) [Compound 220, 7-(1-(1H-1,2,4-triazole-1-carbonyl)azetidin-3-yl)-2-(4-phenoxyphenyl)-4,5,6,7-tetrahydropyrazolo[1,5-a] pyrimidine-3-carboxamide] | ≥ 6.00 | ≥ 6.00
Nc1ncnc2c1c(-c1ccc(Oc3ccccc3)cc1)nn2CC1CCCCN1C(=O)n1cncn1 (centres unmarked) [Compound 267, (2-((4-amino-3-(4-phenoxyphenyl)-1H-pyrazolo[3,4-d]pyrimidin-1-yl)methyl)piperidin-1-yl)(1H-1,2,4-triazol-1-yl)methanone] | ≥ 6.00 | ≥ 6.00
CN(CCC1CCNc2c(-c3ccc(Oc4ccccc4)cc3)c(C(N)=O)nn21)C(=O)n1cncn1 (centres unmarked) [Compound 167, 7-(2-(N-methyl-1H-1,2,4-triazole-1-carboxamido)ethyl)-3-(4-phenoxy-phenyl)-4,5,6,7-tetrahydro-pyrazolo[1,5-a]pyrimidine-2-carboxamide] | < 6.00 | < 6.00
CC1CC(n2nc(-c3ccc(Oc4ccccc4)cc3)c3c(N)ncnc32)CCN1C(=O)n1cncn1 (centres unmarked) [Compound 144, (4-(4-amino-3-(4-phenoxyphenyl)-1H-pyrazolo[3,4-d]pyrimidin-1-yl)-2-methylpiperidin-1-yl)(1H-1,2,4-triazol-1-yl)methanone] | ≥ 6.00 | ≥ 6.00
CN(C(=O)n1cncn1)C1CCC2C(CNc3c(C(N)=O)c(-c4ccc(Oc5ccccc5)cc4)nn32)C1 (centres unmarked) [Compound 272, 7-(N-methyl-1H-1,2,4-triazole-1-carboxamido)-2-(4-phenoxyphenyl)-4,5,5a,6,7,8,9,9a-octahydropyrazolo [1,5-a]quinazoline-3-carboxamide] | ≥ 6.00 | ≥ 6.00
COc1ccc(F)cc1C(=O)NCc1ccc(-c2nn([C@H]3CCCC[C@H](N(C)C(=O)n4cncn4)C3)c(N)c2C(N)=O)cc1 [Compound 232, N-((1S,3S)-3-(5-amino-4-carbamoyl-3-(4-((5-fluoro-2-methoxybenzamido)methyl)phenyl)-1H-pyrazol-1-yl)cycloheptyl)-N-methyl-1H-1,2,4-triazole-1-carboxamide] | ≥ 6.00 | ≥ 6.00
COc1ccc(F)cc1C(=O)NCc1ccc(-c2nn(C[C@@H]3CCCCN3C(=O)n3cncn3)c3[nH]c(=O)[nH]c(=O)c23)cc1 [Compound 164] | ≥ 6.00 | ≥ 6.00
CN(CC1CCNc2c(C(N)=O)c(-c3ccc(Oc4ccccc4)cc3)nn21)C(=O)n1cncn1 (centres unmarked) [Compound 113, 7-((N-methyl-1H-1,2,4-triazole-1-carboxamido)methyl)-2-(4-phenoxyphenyl)-4,5,6,7-tetrahydro-pyrazolo[1,5-a]pyrimidine-3-carboxamide] | < 6.00 | < 6.00
CNc1c(C(N)=O)c(-c2ccc(Oc3ccccc3)cc2)nn1C[C@@H]1CCCCN1C(=O)n1cncn1 [Compound 238, (S)-1-((1-(1H-1,2,4-triazole-1-carbonyl)piperidin-2-yl)methyl)-5-(methylamino)-3-(4-phenoxyphenyl)-1H-pyrazole-4-carboxamide] | < 6.00 | ≥ 6.00
COc1ccc(F)cc1C(=O)NCc1ccc(-c2nn([C@@H]3CCC[C@H](N(C)C(=O)n4cncn4)C3)c(N)c2C(N)=O)cc1 (relative stereo) [Compound 284, N-((1S,3R)-3-(5-amino-4-carbamoyl-3-(4-((5-fluoro-2-methoxy-benzamido)methyl)phenyl)-1H-pyrazol-1-yl)cyclohexyl)-N-methyl-1H-1,2,4-triazole-1-carboxamide] | ≥ 6.00 | ≥ 6.00
CC1(C)CC(n2nc(-c3ccc(Oc4ccccc4)cc3)c3c(N)ncnc32)CCN1C(=O)n1cncn1 (centres unmarked) [Compound 148, (4-(4-amino-3-(4-phenoxyphenyl)-1H-pyrazolo[3,4-d]pyrimidin-1-yl)-2,2-dimethylpiperidin-1-yl)(1H-1,2,4-triazol-1-yl)methanone] | ≥ 6.00 | ≥ 6.00
NC(=O)c1c(-c2ccc(Oc3ccccc3)cc2)nn(C[C@@H]2CCCCN2C(=O)n2cncn2)c1N [Compound 184, (S)-1-((1-(1H-1,2,4-triazole-1-carbonyl)piperidin-2-yl)methyl)-5-amino-3-(4-phenoxyphenyl)-1H-pyrazole-4-carboxamide] | ≥ 6.00 | ≥ 6.00

More lines, now with the values ahead:

pIC50 [1] | pIC50 [2] | SMILES
< 6.00 | < 6.00 | COc1ccc(F)cc1C(=O)NCc1ccc(-c2nn(CC3CN(C(C)=O)CCN3C(=O)n3cncn3)c3ncnc(N)c23)cc1 (centres unmarked) [Compound 313, N-(4-(1-((4-acetyl-1-(1H-1,2,4-triazole-1-carbonyl)piperazin-2-yl)methyl)-4-amino-1H-pyrazolo[3,4-d]pyrimidin-3-yl)benzyl)-5-fluoro-2-methoxybenzamide]
≥ 6.00 | ≥ 6.00 | COc1ccc(F)cc1C(=O)NCc1ccc(-c2nn(C(C)CCN(C)C(=O)n3cncn3)c3ncnc(N)c23)cc1 (centres unmarked) [Compound 303, N-(3-(4-amino-3-(4-((5-fluoro-2-methoxybenzamido)methyl)phenyl)-1H-pyrazolo[3,4-d]pyrimidin-1-yl)butyl)-N-methyl-1H-1,2,4-triazole-1-carboxamide]
≥ 6.00 | ≥ 6.00 | COc1ccc(F)cc1C(=O)NCc1ccc(-c2nn(C[C@@H]3CCCCN3C(=O)n3cncn3)c3ncnc(N)c23)cc1 [Compound 274, (S)-N-(4-(1-((1-(1H-1,2,4-triazole-1-carbonyl)piperidin-2-yl)methyl)-4-amino-1H-pyrazolo[3,4-d]pyrimidin-3-yl)benzyl)-5-fluoro-2-methoxybenzamide]
≥ 6.00 | ≥ 6.00 | COc1ccc(F)cc1C(=O)NCc1ccc(-c2nn(CC3CCCCC3N(C)C(=O)n3cncn3)c3ncnc(N)c23)cc1 (centres unmarked) [Compound 126, N-(2-((4-amino-3-(4-((5-fluoro-2-methoxybenzamido)methyl)phenyl)-1H-pyrazolo[3,4-d]pyrimidin-1-yl)methyl)cyclohexyl)-N-methyl-1H-1,2,4-triazole-1-carboxamide]
< 6.00 | ≥ 6.00 | COc1ccc(F)cc1C(=O)NCc1ccc(-c2nn(C3(CN(C)C(=O)n4cnnn4)CC3)c3ncnc(N)c23)cc1 [Compound 119, N-((1-(4-amino-3-(4-((5-fluoro-2-methoxybenzamido)methyl)phenyl)-1H-pyrazolo[3,4-d]pyrimidin-1-yl)cyclopropyl)methyl)-N-methyl-1H-tetrazole-1-carboxamide]
< 6.00 | < 6.00 | COc1ccc(F)cc1C(=O)NCc1ccc(-c2nn(C(CC3CCC3)CN(C)C(=O)n3cncn3)c3ncnc(N)c23)cc1 (centres unmarked) [Compound 139, N-(2-(4-amino-3-(4-((5-fluoro-2-methoxybenzamido)methyl)phenyl)-1H-pyrazolo[3,4-d]pyrimidin-1-yl)-3-cyclobutylpropyl)-N-methyl-1H-1,2,4-triazole-1-carboxamide]
< 6.00 | < 6.00 | COc1ccc(F)cc1C(=O)NCc1ccc(-c2nn(C(CN(C(=O)n3cncn3)C3CC3)C3CC3)c3ncnc(N)c23)cc1 (centres unmarked) [Compound 231, N-(2-(4-amino-3-(4-((5-fluoro-2-methoxybenzamido)methyl)phenyl)-1H-pyrazolo[3,4-d]pyrimidin-1-yl)-2-cyclopropyl-ethyl)-N-cyclopropyl-1H-1,2,4-triazole-1-carboxamide]
≥ 6.00 | ≥ 6.00 | COc1ccc(F)cc1C(=O)NCc1ccc(-c2nn(C[C@@H]3CC[C@H]3N(C)C(=O)n3cncn3)c(N)c2C(N)=O)cc1 [Compound 121, N-((1R,2S)-2-((5-amino-4-carbamoyl-3-(4-((5-fluoro-2-methoxybenzamido)methyl)phenyl)-1H-pyrazol-1-yl)methyl)cyclobutyl)-N-methyl-1H-1,2,4-triazole-1-carboxamide]
< 6.00 | < 6.00 | COCCC(CN(C)C(=O)n1cncn1)n1nc(-c2ccc(CNC(=O)c3cc(F)ccc3OC)cc2)c2c(N)ncnc21 (centres unmarked) [Compound 291, N-(2-(4-amino-3-(4-((5-fluoro-2-methoxybenzamido)methyl)phenyl)-1H-pyrazolo[3,4-d]pyrimidin-1-yl)-4-methoxybutyl)-N-methyl-1H-1,2,4-triazole-1-carboxamide]
≥ 6.00 | ≥ 6.00 | COc1ccc(F)cc1C(=O)NCc1ccc(-c2nn(C(C)CN(C)C(=O)n3cncn3)c3ncnc(N)c23)cc1 (centres unmarked) [Compound 226, N-(2-(4-amino-3-(4-((5-fluoro-2-methoxybenzamido)methyl)phenyl)-1H-pyrazolo[3,4-d]pyrimidin-1-yl)propyl)-N-methyl-1H-1,2,4-triazole-1-carboxamide]
